Values of other authors, collected in US20040081632A1, “Novel antiperspirant/deodorant active for no white residue sticks and soft solids” (priority 2002, published 2004).

conditions: neat organic solvent

Compound | RI
COCCO [2 methoxy ethanol] | 1.402
CC(O)COC(C)COC(C)CO (stereo not drawn) [tripropylene glycol] | 1.454
COC(C)CCO (stereo not drawn) [3 methoxy butanol] | 1.411
CC(O)CO (stereo not drawn) [propylene glycol] | 1.430
1-methyl 2-propanol | 1.403
CCOCCO [2 ethoxy ethanol] | 1.407
